Experimental data reported in ChEMBL document CHEMBL1221293, “New effective inhibitors of the Abelson kinase” (Bioorg Med Chem, 2010).

target: Tyrosine-protein kinase ABL1 (Homo sapiens, UniProt P00519)
Sequence (P00519 whole entry): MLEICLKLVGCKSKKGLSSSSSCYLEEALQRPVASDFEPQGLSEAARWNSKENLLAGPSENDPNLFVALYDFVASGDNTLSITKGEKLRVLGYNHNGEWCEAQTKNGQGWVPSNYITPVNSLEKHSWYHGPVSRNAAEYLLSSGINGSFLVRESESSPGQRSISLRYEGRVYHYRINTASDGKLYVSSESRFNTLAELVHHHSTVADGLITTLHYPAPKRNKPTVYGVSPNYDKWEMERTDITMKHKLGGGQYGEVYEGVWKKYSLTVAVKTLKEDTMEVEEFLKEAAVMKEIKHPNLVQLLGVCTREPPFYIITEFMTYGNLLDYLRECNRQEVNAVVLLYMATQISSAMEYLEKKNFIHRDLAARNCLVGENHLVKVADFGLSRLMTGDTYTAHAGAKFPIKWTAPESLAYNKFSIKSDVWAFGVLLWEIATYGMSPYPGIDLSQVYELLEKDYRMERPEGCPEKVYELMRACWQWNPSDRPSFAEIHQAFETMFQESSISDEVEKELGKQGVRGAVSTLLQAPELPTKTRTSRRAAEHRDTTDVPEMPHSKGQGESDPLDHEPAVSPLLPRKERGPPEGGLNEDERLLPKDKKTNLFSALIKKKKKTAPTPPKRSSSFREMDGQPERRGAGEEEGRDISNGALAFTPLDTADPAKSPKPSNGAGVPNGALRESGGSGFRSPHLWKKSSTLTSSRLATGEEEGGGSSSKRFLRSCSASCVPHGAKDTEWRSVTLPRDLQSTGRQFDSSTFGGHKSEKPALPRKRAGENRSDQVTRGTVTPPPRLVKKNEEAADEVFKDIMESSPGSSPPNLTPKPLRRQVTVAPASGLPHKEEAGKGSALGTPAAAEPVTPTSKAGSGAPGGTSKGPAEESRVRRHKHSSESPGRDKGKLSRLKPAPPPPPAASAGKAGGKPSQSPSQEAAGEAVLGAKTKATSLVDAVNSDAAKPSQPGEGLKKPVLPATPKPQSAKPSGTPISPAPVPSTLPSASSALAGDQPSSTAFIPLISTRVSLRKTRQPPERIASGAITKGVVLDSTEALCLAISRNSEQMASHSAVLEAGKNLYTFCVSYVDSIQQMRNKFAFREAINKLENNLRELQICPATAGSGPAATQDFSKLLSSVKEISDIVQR
Description: Inhibition of recombinant c-Abl after 30 mins

Point of comparison: `Cn1c(=O)c(-c2c(F)cccc2F)cc2cnc(NCc3cccc(N)c3)nc21`, Ki 40 nM. Against it:
- CSc1cccc(CNc2ncc3cc(-c4c(Cl)cccc4Cl)c(=O)n(C)c3n2)c1 — 1.8-fold higher, 70 nM
- Cn1c(=O)c(-c2c(Cl)cccc2Cl)cc2cnc(NCc3cccc(N)c3)nc21 — 5-fold lower, 8 nM
- CCCCCCNc1cccc(CNc2ncc3cc(-c4c(Cl)cccc4Cl)c(=O)n(C)c3n2)c1 — 22-fold higher, 900 nM
- Cn1c(=O)c(-c2ccccc2Cl)cc2cnc(NCc3cccc(N)c3)nc21 — 1.5-fold higher, 60 nM
- Cn1c(=O)c(-c2c(Cl)cccc2Cl)cc2cnc(Nc3cccc(NC(=O)CN)c3)nc21 — 2000-fold lower, 0.02 nM
- Cn1c(=O)c(-c2ccccc2)cc2cnc(NCc3cccc(N)c3)nc21 — 50-fold higher, 2000 nM
- Cn1c(=O)c(-c2c(Cl)cccc2Cl)cc2cnc(NCc3cccc(NC(=O)CN)c3)nc21 — 2-fold lower, 20 nM
- Cn1c(=O)c(-c2c(Cl)cccc2Cl)cc2cnc(NCc3cccc(C(=O)CCCC[C@@H]4SC[C@@H]5NC(=O)N[C@@H]54)c3)nc21 — 2-fold lower, 20 nM
- Cn1c(=O)c(-c2ccccc2Br)cc2cnc(NCc3cccc(N)c3)nc21 — the same, 40 nM
